Data taken from the NIST ThermoML archive (doi:10.1021/je101178u).
Several values for one entry are separate records, joined by “and”; a condition that tells them apart may be missing. Equal entries are not always repeated. ± gives the expanded uncertainty stated by the source.

Details: Fluid (supercritical or subcritical phases); for mass density: Buoyancy - hydrostatic balance with magnetic suspension - one sinker; for viscosity: vibrating wire

CCC [propane]
Details | mass density | viscosity
273.15 K, 40.93 kPa | 0.80164 ± 0.0028 kg/m3 | 0.00744 ± 4.5e-05 mPa·s
273.15 K, 51.05 kPa | 1.002 ± 0.003 kg/m3 | 0.007443 ± 4.5e-05 mPa·s
273.15 K, 100.76 kPa | 1.999 ± 0.0048 kg/m3 | 0.007443 ± 4.5e-05 mPa·s
273.15 K, 149.62 kPa | 3.0011 ± 0.0067 kg/m3 | 0.007435 ± 4.5e-05 mPa·s
273.15 K, 196.97 kPa | 3.9945 ± 0.0087 kg/m3 | 0.007431 ± 4.5e-05 mPa·s
273.15 K, 243.87 kPa | 5.0016 ± 0.011 kg/m3 | 0.007424 ± 4.5e-05 mPa·s
273.15 K, 289.3 kPa | 6.0007 ± 0.013 kg/m3 | 0.007419 ± 4.5e-05 mPa·s
273.15 K, 333.56 kPa | 6.9977 ± 0.015 kg/m3 | 0.007415 ± 4.5e-05 mPa·s
273.15 K, 376.67 kPa | 7.9933 ± 0.017 kg/m3 | 0.00741 ± 4.5e-05 mPa·s
273.15 K, 420.03 kPa | 9.0207 ± 0.019 kg/m3 | 0.007406 ± 4.5e-05 mPa·s
273.15 K, 459.55 kPa | 9.9815 ± 0.021 kg/m3 | 0.007404 ± 4.5e-05 mPa·s
273.15 K, 459.58 kPa | 9.9822 ± 0.021 kg/m3 | 0.007403 ± 4.5e-05 mPa·s
298.15 K, 44.7 kPa | 0.80087 ± 0.0028 kg/m3 | 0.008128 ± 4.9e-05 mPa·s
298.15 K, 55.55 kPa | 0.99693 ± 0.003 kg/m3 | 0.008133 ± 4.9e-05 mPa·s
298.15 K, 110.39 kPa | 1.9989 ± 0.0048 kg/m3 | 0.00813 ± 4.9e-05 mPa·s
298.15 K, 164.09 kPa | 2.9981 ± 0.0067 kg/m3 | 0.008127 ± 4.9e-05 mPa·s
298.15 K, 164.66 kPa | 3.0089 ± 0.0067 kg/m3 | 0.008126 ± 4.9e-05 mPa·s
298.15 K, 217.05 kPa | 4.0022 ± 0.0087 kg/m3 | 0.008127 ± 4.9e-05 mPa·s
298.15 K, 217.09 kPa | 4.0029 ± 0.0087 kg/m3 | 0.008128 ± 4.9e-05 mPa·s
298.15 K, 268.78 kPa | 5.0013 ± 0.011 kg/m3 | 0.008125 ± 4.9e-05 mPa·s
298.15 K, 318.03 kPa | 5.9708 ± 0.013 kg/m3 | 0.008125 ± 4.9e-05 mPa·s
298.15 K, 369.4 kPa | 7.0017 ± 0.015 kg/m3 | 0.00813 ± 4.9e-05 mPa·s
298.15 K, 418.44 kPa | 8.0059 ± 0.017 kg/m3 | 0.008126 ± 4.9e-05 mPa·s
298.15 K, 464.73 kPa | 8.9725 ± 0.019 kg/m3 | 0.008128 ± 4.9e-05 mPa·s
298.15 K, 498.81 kPa | 9.6967 ± 0.021 kg/m3 | 0.008126 ± 4.9e-05 mPa·s
298.15 K, 513.59 kPa | 10.014 ± 0.021 kg/m3 | 0.008121 ± 4.9e-05 mPa·s
298.15 K, 559.93 kPa | 11.023 ± 0.023 kg/m3 | 0.008129 ± 4.9e-05 mPa·s
298.15 K, 600.75 kPa | 11.93 ± 0.025 kg/m3 | 0.008132 ± 4.9e-05 mPa·s
298.15 K, 604 kPa | 12.003 ± 0.025 kg/m3 | 0.008127 ± 4.9e-05 mPa·s
298.15 K, 646.36 kPa | 12.965 ± 0.027 kg/m3 | 0.008128 ± 4.9e-05 mPa·s and 0.00813 ± 4.9e-05 mPa·s
298.15 K, 691.04 kPa | 14.002 ± 0.03 kg/m3 | 0.008132 ± 4.9e-05 mPa·s
298.15 K, 692.19 kPa | 14.029 ± 0.03 kg/m3 | 0.008133 ± 4.9e-05 mPa·s
298.15 K, 783.49 kPa | 16.228 ± 0.034 kg/m3 | 0.008144 ± 4.9e-05 mPa·s
298.15 K, 849.03 kPa | 17.879 ± 0.038 kg/m3 | 0.00815 ± 4.9e-05 mPa·s
298.15 K, 875.16 kPa | 18.556 ± 0.039 kg/m3 | 0.008155 ± 4.9e-05 mPa·s
298.15 K, 878.68 kPa | 18.648 ± 0.04 kg/m3 | 0.008158 ± 4.9e-05 mPa·s
366.15 K, 68.97 kPa | 1.0047 ± 0.003 kg/m3 | 0.009907 ± 6e-05 mPa·s
366.15 K, 136.86 kPa | 2.0051 ± 0.0048 kg/m3 | 0.009923 ± 6e-05 mPa·s
366.15 K, 270.35 kPa | 4.0067 ± 0.0087 kg/m3 | 0.009941 ± 6e-05 mPa·s
366.15 K, 400.53 kPa | 6.0046 ± 0.013 kg/m3 | 0.009956 ± 6e-05 mPa·s
366.15 K, 527.04 kPa | 7.9924 ± 0.017 kg/m3 | 0.009974 ± 6e-05 mPa·s
366.15 K, 649.96 kPa | 9.9702 ± 0.021 kg/m3 | 0.009996 ± 6e-05 mPa·s
366.15 K, 772.49 kPa | 11.99 ± 0.025 kg/m3 | 0.01002 ± 6e-05 mPa·s
366.15 K, 897.82 kPa | 14.109 ± 0.03 kg/m3 | 0.01005 ± 6.1e-05 mPa·s
366.15 K, 1004.8 kPa | 15.963 ± 0.034 kg/m3 | 0.01007 ± 6.1e-05 mPa·s
366.15 K, 1119.8 kPa | 18.006 ± 0.038 kg/m3 | 0.0101 ± 6.1e-05 mPa·s
366.15 K, 1222.3 kPa | 19.872 ± 0.042 kg/m3 | 0.01013 ± 6.1e-05 mPa·s
366.15 K, 1738.7 kPa | 30.044 ± 0.065 kg/m3 | 0.01032 ± 6.2e-05 mPa·s
366.15 K, 2181.8 kPa | 40.086 ± 0.089 kg/m3 | 0.01055 ± 6.4e-05 mPa·s
366.15 K, 2559.1 kPa | 50.015 ± 0.11 kg/m3 | 0.01083 ± 6.5e-05 mPa·s
366.15 K, 2883 kPa | 60.029 ± 0.14 kg/m3 | 0.01114 ± 6.7e-05 mPa·s
366.15 K, 3154.4 kPa | 70.033 ± 0.17 kg/m3 | 0.01149 ± 6.9e-05 mPa·s
366.15 K, 3381.1 kPa | 80.175 ± 0.2 kg/m3 | 0.0119 ± 7.2e-05 mPa·s
366.15 K, 3559.5 kPa | 90.05 ± 0.25 kg/m3 | 0.01232 ± 7.5e-05 mPa·s
366.15 K, 3704.1 kPa | 100.205 ± 0.29 kg/m3 | 0.01282 ± 7.8e-05 mPa·s
366.15 K, 3704.9 kPa | 100.267 ± 0.29 kg/m3 | 0.01282 ± 7.8e-05 mPa·s
373.15 K, 70 kPa | 1.0004 ± 0.003 kg/m3 | 0.01008 ± 6.1e-05 mPa·s
373.15 K, 139.24 kPa | 2.0008 ± 0.0048 kg/m3 | 0.0101 ± 6.1e-05 mPa·s
373.15 K, 275.58 kPa | 4.0037 ± 0.0087 kg/m3 | 0.01012 ± 6.1e-05 mPa·s
373.15 K, 408.76 kPa | 6.0045 ± 0.013 kg/m3 | 0.01014 ± 6.1e-05 mPa·s
373.15 K, 538.6 kPa | 7.9996 ± 0.017 kg/m3 | 0.01017 ± 6.1e-05 mPa·s
373.15 K, 666.93 kPa | 10.017 ± 0.021 kg/m3 | 0.0102 ± 6.2e-05 mPa·s
373.15 K, 733.66 kPa | 11.085 ± 0.023 kg/m3 | 0.01021 ± 6.2e-05 mPa·s
373.15 K, 917.57 kPa | 14.099 ± 0.03 kg/m3 | 0.01026 ± 6.2e-05 mPa·s
373.15 K, 1023.3 kPa | 15.881 ± 0.034 kg/m3 | 0.01029 ± 6.2e-05 mPa·s
373.15 K, 1147.8 kPa | 18.031 ± 0.038 kg/m3 | 0.01033 ± 6.2e-05 mPa·s
373.15 K, 1248 kPa | 19.801 ± 0.042 kg/m3 | 0.01036 ± 6.2e-05 mPa·s
373.15 K, 1781.8 kPa | 29.954 ± 0.064 kg/m3 | 0.01058 ± 6.4e-05 mPa·s
373.15 K, 1781.9 kPa | 29.957 ± 0.064 kg/m3 | 0.01058 ± 6.4e-05 mPa·s
373.15 K, 2244.2 kPa | 39.982 ± 0.087 kg/m3 | 0.01083 ± 6.6e-05 mPa·s
373.15 K, 2244.5 kPa | 39.99 ± 0.087 kg/m3 | 0.01084 ± 6.6e-05 mPa·s
373.15 K, 2640.8 kPa | 49.856 ± 0.11 kg/m3 | 0.01113 ± 6.7e-05 mPa·s
373.15 K, 2640.9 kPa | 49.858 ± 0.11 kg/m3 | 0.01113 ± 6.7e-05 mPa·s
373.15 K, 2984.3 kPa | 59.751 ± 0.14 kg/m3 | 0.01146 ± 6.9e-05 mPa·s
373.15 K, 2984.4 kPa | 59.753 ± 0.14 kg/m3 | 0.01146 ± 6.9e-05 mPa·s
373.15 K, 3288.7 kPa | 70.03 ± 0.17 kg/m3 | 0.01186 ± 7.1e-05 mPa·s
373.15 K, 3289 kPa | 70.041 ± 0.17 kg/m3 | 0.01186 ± 7.1e-05 mPa·s
373.15 K, 3531.3 kPa | 79.736 ± 0.2 kg/m3 | 0.01227 ± 7.4e-05 mPa·s
373.15 K, 3531.6 kPa | 79.746 ± 0.2 kg/m3 | 0.01227 ± 7.4e-05 mPa·s
373.15 K, 3739.8 kPa | 89.698 ± 0.25 kg/m3 | 0.01273 ± 7.7e-05 mPa·s
373.15 K, 3740.2 kPa | 89.72 ± 0.25 kg/m3 | 0.01273 ± 7.7e-05 mPa·s
373.15 K, 3909.1 kPa | 99.505 ± 0.3 kg/m3 | 0.01323 ± 8.1e-05 mPa·s
373.15 K, 3909.3 kPa | 99.518 ± 0.3 kg/m3 | 0.01323 ± 8.1e-05 mPa·s
373.15 K, 4152.5 kPa | 118.628 ± 0.42 kg/m3 | 0.01431 ± 9.3e-05 mPa·s
373.15 K, 4152.6 kPa | 118.636 ± 0.42 kg/m3 | 0.01431 ± 9.3e-05 mPa·s
373.15 K, 4314.6 kPa | 139.152 ± 0.41 kg/m3 and 139.148 ± 0.41 kg/m3 | 0.01561 ± 9.7e-05 mPa·s
373.15 K, 4400.6 kPa | 157.919 ± 0.53 kg/m3 | 0.01691 ± 0.00011 mPa·s
373.15 K, 4400.7 kPa | 157.947 ± 0.53 kg/m3 | 0.01692 ± 0.00011 mPa·s
373.15 K, 4432.9 kPa | 169.072 ± 0.66 kg/m3 and 169.051 ± 0.66 kg/m3 and 169.087 ± 0.66 kg/m3 | 0.01772 ± 0.00013 mPa·s and 0.01773 ± 0.00013 mPa·s
373.15 K, 4458.2 kPa | 181.456 ± 0.75 kg/m3 and 181.487 ± 0.75 kg/m3 | 0.01876 ± 0.00014 mPa·s
373.15 K, 4477.3 kPa | 194.68 ± 0.75 kg/m3 | 0.02002 ± 0.00014 mPa·s
373.15 K, 4477.4 kPa | 194.74 ± 0.75 kg/m3 | 0.02003 ± 0.00014 mPa·s
373.15 K, 4491.9 kPa | 207.584 ± 0.78 kg/m3 | 0.02135 ± 0.00015 mPa·s
373.15 K, 4492 kPa | 207.643 ± 0.78 kg/m3 | 0.02135 ± 0.00015 mPa·s
373.15 K, 4502.7 kPa | 218.095 ± 0.81 kg/m3 and 218.113 ± 0.81 kg/m3 | 0.02247 ± 0.00016 mPa·s
373.15 K, 4512.2 kPa | 227.171 ± 0.83 kg/m3 and 227.14 ± 0.83 kg/m3 | 0.02347 ± 0.00017 mPa·s
373.15 K, 4515 kPa | 229.692 ± 0.84 kg/m3 | 0.02376 ± 0.00017 mPa·s
